These results are taken from article PMC9661476 (Journal of Medicinal Chemistry, 2022).

A word on the solubility: it is how much of the substance goes into solution per volume. One may read the melting point as the temperature, or range, at which the solid turns liquid.

In brackets after ≈: the same amount, converted by molar mass. Where two headings read alike, the source gives them in different places.

Data set [1] can be described thus: Aqueous solubility measurement. The format is physicochemical. Particulars: for solubility: distilled or deionized water; for solubility, single assay: water. The protocol: Then, distilled or deionized water was added under gentle agitation until total dissolution. All the experiments were performed in triplicate.
The test system of another data set is plasmatic TTR. Particulars: Phase IIa, FAP patients; cited from earlier work.
The mark [2] stands for this setting: assays 1-3 of triplicate, read-out: solubility, single assay.
The mark [3] stands for this setting: average of triplicate, read-out: solubility, average.

For `O=C(c1cc(O)cc(F)c1)c1cc(O)c(O)c([N+](=O)[O-])c1` [Compound M-23, (3,4-Dihydroxy-5-nitrophenyl)-(3-fluoro-5-hydroxyphenyl)methanone], the results for the solubility in data set [1] (setting [2]) and in data set [1] (setting [3]) were 44 µg/mL (≈ 150 µM) and 45 µg/mL (≈ 153 µM), respectively. Further, the “solubility, single assay” value in data set [1] (assays 1-3 of triplicate) was 45 µg/mL (≈ 153 µM).

With `O=C(c1cc(Cl)cc(Cl)c1)c1cc(O)c(O)c([N+](=O)[O-])c1` [Compound M-20, (3,5-Dichlorophenyl)-(3,4-dihydroxy-5-nitrophenyl)methanone], the melting point is 182 to 184 °C.

Turning to `O=C(c1cc(F)cc(F)c1)c1cc(O)c(O)c([N+](=O)[O-])c1` [Compound M-21, (3,5-Difluorophenyl)-(3,4-dihydroxy-5-nitrophenyl)methanone], the melting point fell in the range of 135 to 137 °C.

The molecule `O=C(c1ccc(C(F)(F)F)cc1)c1cc(O)c(O)c([N+](=O)[O-])c1` [Compound M-14, (3,4-Dihydroxy-5-nitrophenyl)-[4-(trifluoromethyl)phenyl]methanone] showed a melting point of 68 to 71 °C.

On to `Cc1ccc(C(=O)c2cc(O)c(O)c([N+](=O)[O-])c2)cc1` [tolcapone, 3,4-dihydroxy-4′-methyl-5-nitrobenzophenone, reference compound], for which the solubility in data set [1] (setting [2]) and in data set [1] (setting [3]) was 56 µg/mL (≈ 205 µM) in each case. The “solubility, single assay” value in data set [1] (assays 1-3 of triplicate) stood at 55 µg/mL (≈ 201 µM). The Adverse events entry with plasmatic TTR is on record as “no adverse events were registered”.
